Measured values from patent US11155542B2, “Antimicrobial compounds, their use for the treatment of mammalian infections and a new metabolic mechanism” (priority 2016, dated 2021).
Converted amounts (≈) assume the structure as drawn.

Each compound was assayed on Mtb (PDR) 12700 (assay: Resazurin microtiter assay (REMA), MIC Mtb (PDR) 12700). Settings: Mycobacterium tuberculosis; PDR = poly drug resistant (isoniazid and streptomycin).
Assay type: cell-based
`C[C@H]1COC2(CCN(c3nc(=O)c4cc(C(F)(F)F)cc([N+](=O)[O-])c4s3)CC2)O1` [BTZ043, (S)-2-(2-methyl-1,4-dioxa-8-azaspiro[4.5]decan-8-yl)-8-nitro-6-(trifluoro-methyl)-4H-1,3-benzothiazin-4-one, reference compound] gave an MIC of 2 ng/mL (≈ 4.64 nM).
Work on `Cc1c(C(F)(F)F)cc2c(=O)nc(N3CCC4(CC3)OC[C@H](C)O4)sc2c1[N+](=O)[O-]` [Example 9a, (S)-7-Methyl-2-(2-methyl-1,4-dioxa-8-azaspiro[4.5]decan-8-yl)-8-nitro-6-(trifluoromethyl)-4H-1,3-benzothiazin-4-one] yielded an MIC of 250 ng/mL (≈ 561 nM).
In the case of `Cc1c(C(F)(F)F)cc([N+](=O)[O-])c2sc(N3CCC4(CC3)OC[C@H](C)O4)nc(=O)c12` [Example 9b, (S)-5-Methyl-2-(2-methyl-1,4-dioxa-8-azaspiro[4.5]decan-8-yl)-8-nitro-6-(trifluoromethyl)-4H-1,3-benzothiazin-4-one], the MIC is reported as 4 ng/mL (≈ 8.98 nM).
`Cc1c(C(F)(F)F)cc([N+](=O)[O-])c2sc(N3CCN(CC4CCCCC4)CC3)nc(=O)c12` [Example 16, 2-(4-(Cyclohexylmethyl)piperazin-1-yl)-5-methyl-8-nitro-6-(trifluoromethyl)-4H-1,3-benzothiazin-4-one] was tested, and the MIC was at most 0.063 ng/mL.
